Assay results published in patent publication US20240415819A1, “MACROCYCLIC COMPOUNDS AS PROTEASOME SUBUNIT BETA TYPE-5 INHIBITORS” (Lead Discovery Center GmbH, priority 2021, published 2024).
Like-named read-outs stand apart in the source and are kept apart here.

Experiments:
[1] = target: T1, β5 subunit of the human constitutive proteasome (CPS) (Homo sapiens, UniProt P28074); assay: β5 inhibition assay, human constitutive proteasome (Suc-LLVY-AMC); type: biochemical; conditions: IC50 class, Suc-LLVY-AMC substrate
T1 construct: purchased Boston Biochem E-360
Description: The enzymatic activity of the β5 subunit of the human constitutive proteasome (CPS) is analyzed. In another assay, which differs from the assay of the human constitutive proteasome only in using the human immunoproteasome (IPS) the enzymatic activity of the β5 subunit of the human immunoproteasome (IPS) is analyzed. […] Inhibition is indicated as IC50 [nM] (“-”=not measured).

HT-29 cells = assay: CellTiter-Glo luminescent cell viability assay with HT-29 cells (72h incubation); type: cell-based, human; conditions: Homo sapiens, HT-29, HT29 cells, read-out: CTG HT29
In short: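 400 cells per well in DMEM/10% FCS were dosed after 24 h and kept 72 h at 37 °C, 5% CO2. ATP-based luminescence (CellTiter-Glo) normalized to DMSO and 10 μM staurosporine controls; IC50 by dose-response fit.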

[2] = system: A549 (human lung carcinoma cell line); assay: Glo assay of A549 cells (Table 3; ProteasomeGlo plating scheme); type: cell-based; conditions: Homo sapiens
In short: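 IC50 values (nM) come from a cell-based chymotrypsin-like Proteasome-Glo luminescence assay. Compound exposure ran 105 min at 37° C.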

[3] = A549 cells, read-out: PGLo A549

Row | SMILES | IC50 [1] | IC50 (HT-29 cells) | IC50 [2, 3] | IC50 ([2]; A549, read-out: PGLo A549 [nM])
1 | CC(=O)N[C@H]1CCCC(=O)N2CCCC(CCOc3ccc(C)c(c3)CNC(=O)[C@H](CCc3ccccc3)NC1=O)C2 (stereo partly drawn) [Compound 213, N-((9S,12S)-5^4-methyl-8,11,16-trioxo-9-phenethyl-4-oxa-7,10-diaza-1(3,1)-piperidina-5(1,3)-benzenacyclohexadecaphane-12-yl)acetamide] | < 100 nM | < 100 nM | 100 to 500 nM | 
2 | Cc1ccc2cc1CNC(=O)[C@H](CCc1ccccc1)NC(=O)[C@@H](NC(=O)CN1CCCC1)CC(=O)N1CCCC(CCO2)C1 (stereo partly drawn) [Compound 89, N-((9S,12S)-5^4-methyl-8,11,14-trioxo-9-phenethyl-4-oxa-7,10-diaza-1(3,1)-piperidina-5(1,3)-benzenacyclotetradecaphane-12-yl)-2-(pyrrolidin-1-yl)acetamide] | < 100 nM | < 100 nM | < 100 nM | 
3 | COCCOCCOCCOC(=O)N[C@H]1CC(=O)N2CCCC(CCOc3ccc(C)c(c3)CNC(=O)[C@H](CCc3ccccc3)NC1=O)C2 (stereo partly drawn) [Compound 220, 2-(2-(2-methoxyethoxy)ethoxy)ethyl ((9R,12R)-5^4-methyl-8,11,14-trioxo-9-phenethyl-4-oxa-7,10-diaza-1(3,1)-piperidina-5(1,3)-benzenacyclotetradecaphane-12-yl)carbamate] | < 100 nM | < 100 nM |  | < 100 nM
4 | COc1ccc2cc1CNC(=O)[C@H](CCc1ccccc1)NC(=O)[C@@H](NC(C)=O)CC(=O)N1CCCC(CCO2)C1 (stereo partly drawn) [Compound 211, N-((9S,12S)-5^4-methoxy-8,11,14-trioxo-9-phenethyl-4-oxa-7,10-diaza-1(3,1)-piperidina-5(1,3)-benzenacyclotetradecaphane-12-yl)acetamide] | 100 to 500 nM | 100 to 500 nM | 500 to 1000 nM | 
5 | Cc1ccc2cc1CNC(=O)[C@H](CCc1ccccc1)NC(=O)[C@@H](NC(=O)C1(C)COC1)CC(=O)N1CCCC(CCO2)C1 (stereo partly drawn) [Compound 287, 3-methyl-N-((9S,12S)-5^4-methyl-8,11,14-trioxo-9-phenethyl-4-oxa-7,10-diaza-1(3,1)-piperidina-5(1,3)-benzenacyclotetradecaphane-12-yl)oxetane-3-carboxamide] | < 100 nM | < 100 nM | < 100 nM | 
6 | Cc1ccc2cc1CNC(=O)[C@H](CCc1ccccc1)NC(=O)[C@@H](NC(=O)C(C)(C)CO)CC(=O)N1CCCC(CCO2)C1 (stereo partly drawn) [Compound 284, 3-hydroxy-2,2-dimethyl-N-((9S,12S)-5^4-methyl-8,11,14-trioxo-9-phenethyl-4-oxa-7,10-diaza-1(3,1)-piperidina-5(1,3)-benzenacyclotetradecaphane-12-yl)propanamide] | < 100 nM | < 100 nM | 100 to 500 nM | 

Now from value to molecule, other results behind:

Row | IC50 [1] | IC50 (HT-29 cells) | IC50 [2, 3] | SMILES | IC50 ([2]; A549, read-out: PGLo A549 [nM])
7 | < 100 nM | < 100 nM | < 100 nM | Cc1ccc2cc1CNC(=O)[C@H](CCc1ccccc1)NC(=O)[C@@H](NC(=O)CCc1ccc(Br)cc1)CC(=O)N1CCCC(CCO2)C1 (stereo partly drawn) [Compound 175, 3-(4-bromophenyl)-N-((9S,12S)-5^4-methyl-8,11,14-trioxo-9-phenethyl-4-oxa-7,10-diaza-1(3,1)-piperidina-5(1,3)-benzenacyclotetradecaphane-12-yl)propanamide] | 
8 | < 100 nM | < 100 nM | < 100 nM | Cc1ccc2cc1CNC(=O)[C@H](CCc1ccccc1)NC(=O)[C@@H](NC(=O)C1(N)COC1)CC(=O)N1CCCC(CCO2)C1 (stereo partly drawn) [Compound 158, 3-amino-N-((9S,12S)-5^4-methyl-8,11,14-trioxo-9-phenethyl-4-oxa-7,10-diaza-1(3,1)-piperidina-5(1,3)-benzenacyclotetradecaphane-12-yl)oxetane-3-carboxamide] | 
9 | < 100 nM | 100 to 500 nM | 100 to 500 nM | CNCCOCC(=O)N[C@H]1CC(=O)N2CCCC(CCOc3ccc(C)c(c3)CNC(=O)[C@H](CCc3ccccc3)NC1=O)C2 (stereo partly drawn) [Compound 130, N-((9S,12S)-5^4-methyl-8,11,14-trioxo-9-phenethyl-4-oxa-7,10-diaza-1(3,1)-piperidina-5(1,3)-benzenacyclotetradecaphane-12-yl)-2-(2-(methylamino)ethoxy)acetamide] | 
10 | < 100 nM | < 100 nM | 100 to 500 nM | Cc1ccc2cc1CNC(=O)[C@H](CCc1ccccc1)NC(=O)[C@@H](NC(=O)C1CCN1)CC(=O)N1CCCC(CCO2)C1 (stereo partly drawn) [Compound 160, (2R)-N-((9S,12S)-5^4-methyl-8,11,14-trioxo-9-phenethyl-4-oxa-7,10-diaza-1(3,1)-piperidina-5(1,3)-benzenacyclotetradecaphane-12-yl)azetidine-2-carboxamide] | 
